The text below walks through data of ChEMBL document CHEMBL2074014, “Role of blood-brain barrier organic anion transporter 3 (OAT3) in the efflux of indoxyl sulfate, a uremic toxin: its involvement in neurotransmitter metabolite clearance from the brain” (J Neurochem, 2002).

Data set [1] concerns the target T1, Organic anion transporter 3 (OAT3) (Rattus norvegicus, UniProt Q9R1U7).
T1 sequence (Q9R1U7 whole entry): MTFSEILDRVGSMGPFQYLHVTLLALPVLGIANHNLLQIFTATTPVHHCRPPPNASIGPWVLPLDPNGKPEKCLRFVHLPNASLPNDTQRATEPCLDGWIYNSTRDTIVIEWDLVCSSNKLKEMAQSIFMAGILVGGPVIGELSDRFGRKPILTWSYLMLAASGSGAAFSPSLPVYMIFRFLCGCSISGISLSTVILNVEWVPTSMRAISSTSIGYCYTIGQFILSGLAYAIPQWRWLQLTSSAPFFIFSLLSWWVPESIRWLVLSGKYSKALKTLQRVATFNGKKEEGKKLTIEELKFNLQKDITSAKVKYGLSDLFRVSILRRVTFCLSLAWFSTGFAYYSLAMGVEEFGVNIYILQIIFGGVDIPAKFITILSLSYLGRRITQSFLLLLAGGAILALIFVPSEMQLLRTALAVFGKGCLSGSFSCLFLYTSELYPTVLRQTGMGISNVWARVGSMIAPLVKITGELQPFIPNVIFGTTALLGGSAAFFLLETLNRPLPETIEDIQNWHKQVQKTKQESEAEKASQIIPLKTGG
In words: TP_TRANSPORTER: inhibition of Indoxyl sulfate uptake (Indoxyl sulfate: 2 uM, ACV: 1000 uM) in Xenopus laevis oocytes. Type of data set: functional, cell-based, Oocyte. More on the design: scale not given: the % may be the effect or the level left. As to conditions: probe Indoxyl sulfate, read-out: Activity.

Data set [2] concerns the target T1, Organic anion transporter 3 (OAT3). In words: TP_TRANSPORTER: inhibition of Indoxyl sulfate uptake (Indoxyl sulfate: 2 uM, Baclofen: 1000 uM) in Xenopus laevis oocytes. Type of data set: functional, cell-based, Oocyte. Further details: scale not given: the % may be the effect or the level left. Particulars: probe Indoxyl sulfate, read-out: Activity.
For data set [3] the target is unchanged. Put plainly: TP_TRANSPORTER: inhibition of Indoxyl sulfate uptake (Indoxyl sulfate: 2 uM, 3,4-Dihydroxyphenylacetic acid: 1000 uM) in Xenopus laevis oocytes. Further details: scale not given: the % may be the effect or the level left. Type of data set: functional, cell-based, Oocyte. As to conditions: probe Indoxyl sulfate, read-out: Activity.
For data set [4], the target named is T2, Organic anion transporter 3 (Rattus norvegicus, UniProt Q9R1U7).
T2 sequence (Q9R1U7 whole entry): T1 sequence (Q9R1U7 whole entry)
Put plainly: TP_TRANSPORTER: inhibition of Indoxyl sulfate uptake (Indoxyl sulfate: 2 uM, Ketoprofen: 1000 uM) in Xenopus laevis oocytes. As to conditions: oocyte. Further details: scale not given: the % may be the effect or the level left. Type of data set: functional, cell-based.

The target in data set [5] is T1, Organic anion transporter 3 (OAT3). Put plainly: TP_TRANSPORTER: inhibition of Indoxyl sulfate uptake (Indoxyl sulfate: 2 uM, 5-Hydroxyindole acetic acid: 1000 uM) in Xenopus laevis oocytes. Type of data set: functional, cell-based, Oocyte. Further details: scale not given: the % may be the effect or the level left. Particulars: probe Indoxyl sulfate, read-out: Activity.

For data set [6] the target is unchanged. Put plainly: TP_TRANSPORTER: inhibition of Indoxyl sulfate uptake (Indoxyl sulfate: 2 uM, Benzoic acid: 1000 uM) in Xenopus laevis oocytes. Type of data set: functional, cell-based, Oocyte. More on the design: scale not given: the % may be the effect or the level left. As to conditions: probe Indoxyl sulfate, read-out: Activity.
The target is the same in data set [7]. In words: TP_TRANSPORTER: inhibition of Indoxyl sulfate uptake (Indoxyl sulfate: 2 uM, Melatonin: 1000 uM) in Xenopus laevis oocytes. Type of data set: functional, cell-based, Oocyte. More on the design: scale not given: the % may be the effect or the level left. As to conditions: probe Indoxyl sulfate, read-out: Activity.
Data set [8] shares this target. In words: TP_TRANSPORTER: inhibition of Indoxyl sulfate uptake (Indoxyl sulfate: 2 uM, 3-Methoxy-4-hydroxymandelic acid: 1000 uM) in Xenopus laevis oocytes. Type of data set: functional, cell-based, Oocyte. Further details: scale not given: the % may be the effect or the level left. Particulars: probe Indoxyl sulfate, read-out: Activity.
Data set [9] shares this target. Put plainly: TP_TRANSPORTER: inhibition of Indoxyl sulfate uptake (Indoxyl sulfate: 2 uM, 6-mercaptopurine: 1000 uM) in Xenopus laevis oocytes. Particulars: probe Indoxyl sulfate, read-out: Activity. Type of data set: functional, cell-based, Oocyte. More on the design: scale not given: the % may be the effect or the level left.
For data set [10] the target is unchanged. Put plainly: TP_TRANSPORTER: inhibition of Indoxyl sulfate uptake (Indoxyl sulfate: 2 uM, 5-Methoxytryptophol: 1000 uM) in Xenopus laevis oocytes. Particulars: probe Indoxyl sulfate, read-out: Activity. Type of data set: functional, cell-based, Oocyte. More on the design: scale not given: the % may be the effect or the level left.
For data set [11] the target is unchanged. In words: TP_TRANSPORTER: inhibition of Indoxyl sulfate uptake (Indoxyl sulfate: 2 uM, Cefazolin: 1000 uM) in Xenopus laevis oocytes. Type of data set: functional, cell-based, Oocyte. More on the design: scale not given: the % may be the effect or the level left. Particulars: probe Indoxyl sulfate, read-out: Activity.
Data set [12] has the same target. Put plainly: TP_TRANSPORTER: inhibition of Indoxyl sulfate uptake (Indoxyl sulfate: 2 uM, Imidazoleacetic acid: 1000 uM) in Xenopus laevis oocytes. Type of data set: functional, cell-based, Oocyte. Further details: scale not given: the % may be the effect or the level left. Particulars: probe Indoxyl sulfate, read-out: Activity.
For data set [13] the target is unchanged. In words: TP_TRANSPORTER: inhibition of Indoxyl sulfate uptake (Indoxyl sulfate: 2 uM, HVA: 1000 uM) in Xenopus laevis oocytes. Type of data set: functional, cell-based, Oocyte. More on the design: scale not given: the % may be the effect or the level left. As to conditions: probe Indoxyl sulfate, read-out: Activity.
The target of data set [14] is T2, Organic anion transporter 3. Put plainly: TP_TRANSPORTER: inhibition of Indoxyl sulfate uptake (Indoxyl sulfate: 2 uM, Valproic acid: 1000 uM) in Xenopus laevis oocytes. Type of data set: functional, cell-based. As to conditions: oocyte.
Data set [15] concerns the target T1, Organic anion transporter 3 (OAT3). Put plainly: TP_TRANSPORTER: inhibition of Indoxyl sulfate uptake (Indoxyl sulfate: 2 uM, 3,4-Dihydroxymandelic acid: 1000 uM) in Xenopus laevis oocytes. Type of data set: functional, cell-based, Oocyte. Further details: scale not given: the % may be the effect or the level left. Particulars: probe Indoxyl sulfate, read-out: Activity.

With `Nc1nc2c(ncn2COCCO)c(=O)[nH]1` [ACYCLOVIR], the activity at 1000 µM in data set [1] is 7.66%. For `NCC(CC(=O)O)c1ccc(Cl)cc1` (stereo not given) [BACLOFEN], the activity at 1000 µM in data set [2] was found to be 25.7%.

`O=C(O)Cc1ccc(O)c(O)c1` [3,4-DIHYDROXYPHENYLACETIC ACID]: the activity at 1000 µM in data set [3] amounted to 8.86%.

Molecule `CC(C(=O)O)c1cccc(C(=O)c2ccccc2)c1` (stereo not given) [KETOPROFEN] yielded an Activity in data set [4] of 22.3%. As to `O=C(O)Cc1c[nH]c2ccc(O)cc12`, the activity at 1000 µM in data set [5] was found to be 18.7%. Take `O=C(O)c1ccccc1` [BENZOIC ACID]: the activity at 1000 µM in data set [6] stood at 71.6%. With `COc1ccc2[nH]cc(CCNC(C)=O)c2c1` [MELATONIN], the activity at 1000 µM in [7] amounted to 30.9%. In the case of `COc1cc([C@@H](O)C(=O)O)ccc1O`, the activity at 1000 µM in data set [8] amounted to 27.3%. In the case of `Sc1ncnc2nc[nH]c12` [MERCAPTOPURINE ANHYDROUS], the activity at 1000 µM in data set [9] stood at 19.1%. For the molecule `COc1ccc2[nH]cc(CCO)c2c1`, the activity at 1000 µM in data set [10] turned out to be 26.8%. Consider `Cc1nnc(SCC2=C(C(=O)O)N3C(=O)[C@@H](NC(=O)Cn4cnnn4)[C@H]3SC2)s1` [CEFAZOLIN], for which, in [11], the activity at 1000 µM turned out to be 13.6%. For the molecule `O=C(O)Cc1ncc[nH]1` [IMIDAZOLEACETIC ACID], the activity at 1000 µM in data set [12] was 69.4%. `COc1cc(CC(=O)O)ccc1O` [HOMOVANILLIC ACID]: the activity at 1000 µM in [13] is 29.9%. In the case of `CCCC(CCC)C(=O)O` [VALPROIC ACID], the Activity entry in data set [14] is “is not an inhibitor [-]”. As for `O=C(O)[C@H](O)c1ccc(O)c(O)c1`, the activity at 1000 µM in data set [15] amounted to 33.5%.
